Tests used:
Assay in all cases: relative viability (nuclei count vs DMSO), 5 days (fraction); higher = more cells survive
[1] = compound: COc1cc(N2CCC(N3CCN(C)CC3)CC2)ccc1Nc1ncc(Cl)c(Nc2ccccc2S(=O)(=O)C(C)C)n1 [NVP-TAE684] + Cc1nc(Nc2ncc(C(=O)Nc3c(C)cccc3Cl)s2)cc(N2CCN(CCO)CC2)n1 [Dasatinib] (partner 0.075 µM)
Summary of the method: (§1)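 Lung cancer cell lines in 1536-well plates were dosed by pin tool the day after seeding, either with one drug alone or with a fixed anchor-drug dose plus five library-drug doses (not always all listed) in √10 steps. After 5 days, cells were fixed and their nuclei stained in one step (final 0.05% Triton X-100, 1% formaldehyde, 1 ug/ml Hoechst), then counted on 4× images. Relative viability is the nuclei count in treated wells divided by that in vehicle wells. Values are medians of duplicate plates.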

[2] = compound: C1=CC=C2C(=C1)N=C(S2)C(C#N)C3=NC(=NC=C3)NCCC4=CN=CC=C4 + CC(=O)c1c(C)c2cnc(Nc3ccc(N4CCNCC4)cn3)nc2n(C2CCCC2)c1=O [Palbociclib] (partner 0.5 µM)
Summary of the method: as §1

[3] = compound: COc1cc2/c(=N/c3ccc(Br)cc3F)nc[nH]c2cc1OCC1CCN(C)CC1 [Vandetanib] + COc1cc2c(Oc3ccc(NC(=O)C4(C(=O)Nc5ccc(F)cc5)CC4)cc3F)ccnc2cc1OCCCN1CCOCC1 [Foretinib] (partner 0.25 µM)
Summary of the method: as §1

[4] = compound: COc1cc(N2CCC(N3CCN(C)CC3)CC2)ccc1Nc1ncc(Cl)c(Nc2ccccc2S(=O)(=O)C(C)C)n1 [NVP-TAE684] + CC(C)C[C@H](NC(=O)[C@H](Cc1ccccc1)NC(=O)c1cnccn1)B(O)O [Bortezomib] (partner 0.002 µM)
Summary of the method: as §1

| Cell Line | relative viability ([1]; first compound 0.2 µM) | relative viability ([1]; first compound 0.6325 µM) | relative viability ([1]; first compound 2 µM) | relative viability ([2]; first compound 0.01581 µM) | relative viability ([2]; first compound 0.05 µM) | relative viability ([2]; first compound 0.1581 µM) | relative viability ([2]; first compound 0.5 µM) | relative viability ([3]; first compound 0.02 µM) | relative viability ([3]; first compound 0.06325 µM) | relative viability ([3]; first compound 0.2 µM) | relative viability ([3]; first compound 0.6325 µM) | relative viability ([3]; first compound 2 µM) | relative viability ([4]; first compound 0.2 µM) | relative viability ([4]; first compound 0.6325 µM) | relative viability ([4]; first compound 2 µM) | relative viability ([2]; first compound 0.005 µM) |
| --- | --- | --- | --- | --- | --- | --- | --- | --- | --- | --- | --- | --- | --- | --- | --- | --- |
| NCI-H1915 | 0.363 | 0.294 | 0.255 | 0.532 | 0.498 | 0.569 | 0.523 | 1.08 | 1.11 | 1.11 | 1.08 | 1.06 | 1.09 | 1.03 | 1.05 |  |
| NCI-H661 | 1.09 | 0.677 | 0.622 | 0.433 | 0.415 | 0.416 | 0.411 | 0.972 | 0.997 | 0.999 | 1.07 | 0.847 | 0.791 | 0.88 | 0.842 | 0.428 |
| NCI-H2228 | 0.206 | 0.0665 | 0.0894 | 0.886 | 0.649 | 1.12 | 0.597 | 0.92 | 0.625 | 0.167 | 0.803 | 0.822 | 0.633 | 0.33 | 0.214 | 0.564 |
| NCI-H1975 | 0.361 | 0.225 | 0.186 | 0.538 | 0.656 | 0.832 | 0.408 | 0.908 | 0.901 | 0.136 | 0.842 | 0.912 | 0.359 | 0.362 | 0.21 | 0.565 |
| NCI-H2087 | 0.573 | 0.694 | 0.225 | 0.208 | 0.214 | 0.261 | 0.227 | 1.15 | 0.886 | 0.181 | 1.38 | 1.11 | 0.998 | 0.789 | 0.886 | 0.24 |
